Experimental data taken from US20040137532A1, “Antibody competition test (act) for the qualitative and conformation dependent quantitative detection of the conformation changes of p-glycoprotein and other cell surface receptors, pumps and proteins, and uses thereof” (priority 2001, published 2004).
Read-outs that look alike come from different tables or passages of the source.

Molecular target: P-glycoprotein (Pgp) (Homo sapiens, UniProt P08183)
Conditions: for conformation change which prevents binding of MM12.10 after UIC2 (efficient in ACT): cells pretreated with modulator/substrate, then UIC2, then FITC-MM12.10, KB-V1 and NIH 3T3 MDR1 cells
Protocol: The cells were trypsinized as usual, washed twice with PBS (phosphate buffered saline, pH 7,4). 10^6 cells/1 ml PBS (plus 8 mM glucose), pre-incubated for 20 minutes at 37° C. with different drugs, modulators, and without washing the cells, the first (“A”) monoclonal antibody was added to the samples. After a further 30 minutes incubation (at 37° C.) an FITC or 5-sFx conjugated second (“B”) antibody was added to the samples (again without washing the cells), and were incubated at 37° C. for another 30 minutes. In case of the UIC2-shift test the cells were incubated with UIC2 antibody, washed twice, and incubated with goat anti-mouse IgG2a FITC conjugate (F/P=4,3, Sigma) on ice in 100 μl PBS for 45 minutes. The samples washed twice were resuspended in 500 μl PBS, and analyzed in flow cytometer. The antibody concentrations used were: 8 μg/ml MRK16, MC57, MM8.15, MM12.10 and 10 μg/ml UIC2. Daunorubicine (DNR) and calcein accumulation tests: see Goda, K. et al.: Practical guide to physical analysis of cell surface receptors, Ed.: Krasznai, Z. and Mátyus, L., pp. 110-125 (1998); Homolya, L., Holló, Zs., Germann, U. A., Pastan, L, Gottesman, M. M. and Sarkadi, B.: Fluorescent cellular indicators are extruded by the multidrug resistance protein. Journal of Biological Chemistry 268 21493-21496 (1993); Holló, Zs., Homolya, L., Davis, C. W. and Sarkadi, B.: Calcein accumulation as a fluorimetric functional assay of the multidrug trasporter. Biochimica et Biophysica Acta 1191 384-388 199420,21.
The average fluorescence intensities per cell were determined by Becton Dickinson FACScan (Mountain View, Calif.). Dead cells were excluded from the analysis by propidium-iodate staining. The fluorescence signals were plotted on logarithmic scale, the two-level analysis was carried out by BDIS CellQuest and FloWin softwares (SoftFlow Ltd., Pécs, Hungary).
The cells are then treated with the first (“A”) antibody (incubation with or without UIC2, MM8.1 or MC57) for 30 minutes, and the cells are labelled with FITC-MM12.10 (“B”) antibody The curves are flow cytometry histograms from representative measurement each. Continous line: control without “A”; bold line: “A”=UIC2; dotted line: “A”=MM8.15 (a-d) or MC57 (e-f). Binding of the “A” antibodies was verified in two independent experiments, with indirect immunfluorescence.
The ratio of average FITC MM12.10 fluorescence intensities, with and without UIC2 pretreatment give the Rcompetition values (black columns). Cells were pretreated for 20 minutes with reverting agents, and incubated for further 20 minutes with UIC2 antibody, finally the FITC-MM12.10 antibody was used (further 30 minutes incubation). Cells were not washed between the incubation steps. […] UIC2-shift was detected by indirect immunfluorescence; the white columns show the ratio of the average fluorescence intensities detected with and without the reverting treatments (Rshift). On the insert figure the same UIC2-shift data are plotted on magnified scale. The average of 4-6 independent measurements (±SEM) are shown.
ACT tests were carried out on NIH3T3 MDR1 cells, with different antibody combinations. Following UIC2 or MM12.10 (not conjugated with stain) pretreatment the cells are labelled with FITC or 5sFx conjugated MM12.10, UIC2, MRK16 and MM18.15 antibodies. Before adding the antibodies the cells are pretreated with CSA (grey columns) or not (black columns).

Chain of P-glycoprotein (Pgp) (P08183 whole entry): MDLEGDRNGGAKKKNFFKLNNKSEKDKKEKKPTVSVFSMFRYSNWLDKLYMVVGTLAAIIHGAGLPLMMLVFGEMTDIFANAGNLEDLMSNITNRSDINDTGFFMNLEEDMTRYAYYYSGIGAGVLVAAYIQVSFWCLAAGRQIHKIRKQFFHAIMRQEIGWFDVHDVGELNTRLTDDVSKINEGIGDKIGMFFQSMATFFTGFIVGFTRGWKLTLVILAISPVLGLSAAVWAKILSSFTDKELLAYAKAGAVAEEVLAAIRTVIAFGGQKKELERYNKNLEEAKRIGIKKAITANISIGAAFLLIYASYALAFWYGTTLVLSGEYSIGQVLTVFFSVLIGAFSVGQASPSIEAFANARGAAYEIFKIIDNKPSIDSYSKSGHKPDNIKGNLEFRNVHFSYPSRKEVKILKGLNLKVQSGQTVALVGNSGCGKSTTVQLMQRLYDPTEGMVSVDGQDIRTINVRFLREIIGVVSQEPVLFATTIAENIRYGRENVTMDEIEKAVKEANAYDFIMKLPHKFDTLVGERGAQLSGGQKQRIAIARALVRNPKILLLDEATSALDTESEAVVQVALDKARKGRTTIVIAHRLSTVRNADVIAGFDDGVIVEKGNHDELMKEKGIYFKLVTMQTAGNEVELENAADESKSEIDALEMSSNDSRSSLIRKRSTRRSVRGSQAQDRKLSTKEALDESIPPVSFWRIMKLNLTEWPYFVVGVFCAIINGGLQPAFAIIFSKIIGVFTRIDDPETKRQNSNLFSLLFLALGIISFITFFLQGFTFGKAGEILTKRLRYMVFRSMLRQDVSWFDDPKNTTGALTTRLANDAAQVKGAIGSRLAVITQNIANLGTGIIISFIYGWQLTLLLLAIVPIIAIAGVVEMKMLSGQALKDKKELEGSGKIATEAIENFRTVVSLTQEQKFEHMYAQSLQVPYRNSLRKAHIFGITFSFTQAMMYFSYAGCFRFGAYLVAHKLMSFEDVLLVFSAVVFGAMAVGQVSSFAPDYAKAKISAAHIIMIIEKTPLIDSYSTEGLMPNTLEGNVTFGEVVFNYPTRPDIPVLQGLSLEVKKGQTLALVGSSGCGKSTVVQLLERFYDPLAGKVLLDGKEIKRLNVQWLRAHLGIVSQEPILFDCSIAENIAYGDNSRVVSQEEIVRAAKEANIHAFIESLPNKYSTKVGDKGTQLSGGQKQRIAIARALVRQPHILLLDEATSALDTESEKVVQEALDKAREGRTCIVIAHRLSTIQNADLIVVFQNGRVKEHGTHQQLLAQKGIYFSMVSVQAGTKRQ

Compound | Rcompetition value in ACT after ATP depletion | conformation change which prevents binding of MM12.10 after UIC2 (efficient in ACT) | conformation change which prevents binding of MM12.10 after UIC2 (efficient in ACT) (listed as valinomycin)
CC[C@H]1/C=C/C=C/C[C@@H](C)[C@H](O)[C@@](C)(O)C(=O)[C@@H](C)[C@H](O)[C@@H](C)C(=O)[C@@H](C)[C@H](O)[C@@H](C)/C=C/C(=O)O[C@@H]2[C@H](C)[C@H](CC1)O[C@]1(CC[C@H](C)[C@H](C[C@@H](C)O)O1)[C@H]2C [oligomicin] | big | – | –
CC(C)[C@@H]1NC(=O)[C@H](C)OC(=O)[C@@H](C(C)C)NC(=O)[C@@H](C(C)C)OC(=O)[C@H](C(C)C)NC(=O)[C@H](C)OC(=O)[C@@H](C(C)C)NC(=O)[C@@H](C(C)C)OC(=O)[C@H](C(C)C)NC(=O)[C@H](C)OC(=O)[C@@H](C(C)C)NC(=O)[C@@H](C(C)C)OC1=O [valinomycine] | – | accomplishes the conformation change | efficient
C/C=C/C[C@@H](C)C(=O)[C@H]1C(=O)N[C@@H](C(C)C)C(=O)N(C)CC(=O)N(C)[C@@H](CC(C)C)C(=O)N[C@@H](C(C)C)C(=O)N(C)[C@@H](CC(C)C)C(=O)N[C@@H](C)C(=O)N[C@H](C)C(=O)N(C)[C@@H](CC(C)C)C(=O)N(C)[C@@H](CC(C)C)C(=O)N(C)[C@@H](C(C)C)C(=O)N1C [PSC 833] | – | accomplishes the conformation change | –
gramicidin | – | doesn't | –
